Patent US20100120690A1, “Polypeptides Having Antimicrobial Activity and Polynucleotides Encoding Same” (Novozymes Adenium Biotech A/S, priority 2005, published 2010)

Columns and labels:
Format in all cases: cell-based
[1] = system: Staphylococcus carnosus ATCC51365; assay: Yeast screening assay: radial diffusion assay of yeast supernatants; design: key: An activity of 3 is better than Plectasin; An activity of 2 corresponds to the activity of Plectasin; 1 is worse than Plectasin; conditions: yeast supernatant, clearing zone in radial diffusion assay
In short: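 Activity scores (1 worse, 2 equal, 3 better than wild-type plectasin) come from the size of the radial-diffusion clearing zone against S. carnosus at 5×10^5 cfu/mL. Test samples were culture supernatants of yeast transformants induced with galactose for 3 days at 30 °C, and plates were developed at 37 °C with MTT.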

[2] = system: Staphylococcus aureus, ATCC 29213; assay: MIC, NCCLS/CLSI guidelines (Example 5), strain A; conditions: relative to wildtype Plectasin; average of two independent experiments
Protocol: (§1) Plectasin wild-type (SEQ ID NO: 1) and several variants of Plectasin were expressed and purified. The Minimal Inhibitory Concentration (MIC) was determined to test for their antimicrobial activity following the NCCLS guidelines from CLSI (Clinical and Laboratory Standards Institute; formerly known as National Committee for Clinical and Laboratory Standards).
(§2) The peptides were tested against the following strains: • A: Staphylococcus aureus, ATCC 29213; • B: Staphylococcus aureus, ATCC 25923; • C: Staphylococcus aureus, ATCC 29737; • D: Staphylococcus aureus, MRSA ST5 (2001), multi-resistant clinical human isolate from Statens Serum Institut, Denmark; • E: Staphylococcus aureus, MRSA ST80 (2003), multi-resistant clinical human isolate from Statens Serum Institut, Denmark.
(§3) All MIC values represent an average of two independent experiments; and all results in Table 5 are expressed relative to wildtype Plectasin:
(§4) 0: >100% of Plectasin wildtype MIC; 1: 80-100% of Plectasin wildtype MIC; 2: 50-80% of Plectasin wildtype MIC; 3: <50% of Plectasin wildtype MIC.

[3] = system: Staphylococcus aureus, ATCC 25923; assay: MIC, NCCLS/CLSI guidelines (Example 5), strain B; conditions: relative to wildtype Plectasin; average of two independent experiments
Protocol: as §1, §2, §3, §4

[4] = system: Staphylococcus aureus, ATCC 29737; assay: MIC, NCCLS/CLSI guidelines (Example 5), strain C; conditions: relative to wildtype Plectasin; average of two independent experiments
Protocol: as §1, §2, §3, §4

[5] = system: Staphylococcus aureus, MRSA ST5 (2001); assay: MIC, NCCLS/CLSI guidelines (Example 5), strain D; conditions: relative to wildtype Plectasin; average of two independent experiments
Protocol: as §1, §2, §3, §4

[6] = system: Staphylococcus aureus, MRSA ST80 (2003); assay: MIC, NCCLS/CLSI guidelines (Example 5), strain E; conditions: relative to wildtype Plectasin; average of two independent experiments
Protocol: as §1, §2, §3, §4

[7] = system: panel of 6 different strains of Staphylococcus aureus; assay: Average MIC, NCCLS/CLSI guidelines using caMHB (Example 6); conditions: average over 6 S. aureus strains, duplicate; MIC above 32 counted as 64; read after 18-24 hours at 37° C.
In short: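 Six Staphylococcus aureus strains, MSSA and MRSA, were exposed in duplicate to peptide dilutions from 32 down to 0.03 microgram/mL in caMHB following CLSI guidance. Growth was scored after 18-24 h incubation at 37° C. The tabulated value is the mean MIC, with 64 used for any MIC >32 micrograms/mL.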

Substance	Activity (antimicrobial activity relative to the activity of plectasin) [1]	Relative MIC, strain A [2]	Relative MIC, strain B [3]	Relative MIC, strain C [4]	Relative MIC, strain D [5]	Relative MIC, strain E [6]	Average MIC [7]
GFGCKGPWDEDDMQCHNHCKSIKGYRGGYCAKGGFVCKCY [N5K + K26R]	3	1 (80-100% of Plectasin wildtype MIC)	2 (50-80% of Plectasin wildtype MIC)	3 (<50% of Plectasin wildtype MIC)	2 (50-80% of Plectasin wildtype MIC)	2 (50-80% of Plectasin wildtype MIC)	9 micrograms/mL
GFGCNGPWDEDDMRCHNHCKSIKGYRGGYCAKGGFVCRCY [Q14R + K26R + K38R]	3	3 (<50% of Plectasin wildtype MIC)	3 (<50% of Plectasin wildtype MIC)	3 (<50% of Plectasin wildtype MIC)	3 (<50% of Plectasin wildtype MIC)	3 (<50% of Plectasin wildtype MIC)	2 micrograms/mL
N5A + D9S + M13L + N17T: variant of Plectasin (SEQ ID NO: 1) (GFGCAGPWSEDDLQCHTHCKSIKGYKGGYCAKGGFVCKCY)	–	0 (>100% of Plectasin wildtype MIC)	3 (<50% of Plectasin wildtype MIC)	3 (<50% of Plectasin wildtype MIC)	2 (50-80% of Plectasin wildtype MIC)	3 (<50% of Plectasin wildtype MIC)	6 micrograms/mL
N5G + D9S + M13L + N17Q + A31T: variant of Plectasin (SEQ ID NO: 1) (GFGCGGPWSEDDLQCHQHCKSIKGYKGGYCTKGGFVCKCY)	–	3 (<50% of Plectasin wildtype MIC)	3 (<50% of Plectasin wildtype MIC)	3 (<50% of Plectasin wildtype MIC)	3 (<50% of Plectasin wildtype MIC)	3 (<50% of Plectasin wildtype MIC)	3 micrograms/mL
N5G + M13L: variant of Plectasin (SEQ ID NO: 1) (GFGCGGPWDEDDLQCHNHCKSIKGYKGGYCAKGGFVCKCY)	–	2 (50-80% of Plectasin wildtype MIC)	3 (<50% of Plectasin wildtype MIC)	3 (<50% of Plectasin wildtype MIC)	3 (<50% of Plectasin wildtype MIC)	3 (<50% of Plectasin wildtype MIC)	4 micrograms/mL
N5G + M13Y + N17K: variant of Plectasin (SEQ ID NO: 1) (GFGCGGPWDEDDYQCHKHCKSIKGYKGGYCAKGGFVCKCY)	–	3 (<50% of Plectasin wildtype MIC)	3 (<50% of Plectasin wildtype MIC)	3 (<50% of Plectasin wildtype MIC)	3 (<50% of Plectasin wildtype MIC)	2 (50-80% of Plectasin wildtype MIC)	5 micrograms/mL
N5G + Q14K: variant of Plectasin (SEQ ID NO: 1) (GFGCGGPWDEDDMKCHNHCKSIKGYKGGYCAKGGFVCKCY)	–	2 (50-80% of Plectasin wildtype MIC)	2 (50-80% of Plectasin wildtype MIC)	3 (<50% of Plectasin wildtype MIC)	0 (>100% of Plectasin wildtype MIC)	2 (50-80% of Plectasin wildtype MIC)	9 micrograms/mL
N5R + M13Y + N17R: variant of Plectasin (SEQ ID NO: 1) (GFGCRGPWDEDDYQCHRHCKSIKGYKGGYCAKGGFVCKCY)	–	3 (<50% of Plectasin wildtype MIC)	3 (<50% of Plectasin wildtype MIC)	3 (<50% of Plectasin wildtype MIC)	3 (<50% of Plectasin wildtype MIC)	3 (<50% of Plectasin wildtype MIC)	1 micrograms/mL
N5S + D9A + K26R: variant of Plectasin (SEQ ID NO: 1) (GFGCSGPWAEDDMQCHNHCKSIKGYRGGYCAKGGFVCKCY)	–	3 (<50% of Plectasin wildtype MIC)	3 (<50% of Plectasin wildtype MIC)	3 (<50% of Plectasin wildtype MIC)	3 (<50% of Plectasin wildtype MIC)	3 (<50% of Plectasin wildtype MIC)	3 micrograms/mL
N5S + D9S + M13L + Q14R + N17V + A31S: variant of Plectasin (SEQ ID NO: 1) (GFGCSGPWSEDDLRCHVHCKSIKGYKGGYCSKGGFVCKCY)	–	3 (<50% of Plectasin wildtype MIC)	3 (<50% of Plectasin wildtype MIC)	3 (<50% of Plectasin wildtype MIC)	3 (<50% of Plectasin wildtype MIC)	3 (<50% of Plectasin wildtype MIC)	2 micrograms/mL
N5S + D9S + M13V + N17R: variant of Plectasin (SEQ ID NO: 1) (GFGCSGPWSEDDVQCHRHCKSIKGYKGGYCAKGGFVCKCY)	–	3 (<50% of Plectasin wildtype MIC)	3 (<50% of Plectasin wildtype MIC)	3 (<50% of Plectasin wildtype MIC)	3 (<50% of Plectasin wildtype MIC)	3 (<50% of Plectasin wildtype MIC)	2 micrograms/mL
N5S + D9S: variant of Plectasin (SEQ ID NO: 1) (GFGCSGPWSEDDMQCHNHCKSIKGYKGGYCAKGGFVCKCY)	–	0 (>100% of Plectasin wildtype MIC)	3 (<50% of Plectasin wildtype MIC)	3 (<50% of Plectasin wildtype MIC)	2 (50-80% of Plectasin wildtype MIC)	3 (<50% of Plectasin wildtype MIC)	6 micrograms/mL
